These results are taken from ChEMBL document CHEMBL1140165, “Rotationally constrained 2,4-diamino-5,6-disubstituted pyrimidines: a new class of histamine H4 receptor antagonists with improved druglikeness and in vivo efficacy in pain and inflammation models” (J Med Chem, 2008).

The subject of data set [1] is Rattus norvegicus. The experiment in a line: Antinociceptive efficacy in ip dosed rat assessed as inhibition of carrageenan-induced inflammatory pain in paw after 30 mins by hotbox assay relative to control. Type of data set: functional. A general note: In the carrageenan paw model, swelling and tenderness develop within hours.
The test system of data set [2] is Liver microsomes. The experiment in a line: Metabolic stability in human liver microsomes. In kind it is ADME, Microsome. In general terms: Liver microsomes are a subcellular fraction often used to study metabolism.
Data set [3] is described as follows: Selectivity ratio of Ki for human histamine H4 receptor to Ki for histamine H2 receptor.
For the next data set, the species on record is Homo sapiens. The experiment in a line: Selectivity ratio of Ki for human histamine H4 receptor to Ki for human histamine H3 receptor.
Data set [4] concerns the target Cannabinoid receptor 2 (Homo sapiens) (UniProt P34972). The experiment in a line: Binding affinity to CB2 receptor.
Data set [5] addresses Mu-type opioid receptor (Homo sapiens) (UniProt P35372). The experiment in a line: Binding affinity to mu opioid receptor.
For data set [6], the target named is Delta-type opioid receptor (Homo sapiens) (UniProt P41143). The experiment in a line: Binding affinity to delta opioid receptor.
Data set [7] addresses T1, Histamine H4 receptor (Rattus norvegicus, UniProt Q91ZY1). Briefly: Displacement of [3H]histamine from rat histamine H4 receptor expressed in HEK293 cells. Type of data set: cell-based. Background: Loss of bound radioactivity is the signal in a displacement assay; it reports binding, not function.
A short description of data set [8]: Selectivity ratio of Ki for human histamine H4 receptor to Ki for adrenergic alpha1 receptor.
In data set [9] the test system is Rattus norvegicus. The experiment in a line: Antinociceptive efficacy against von Frey hair mechanically stimulated post-surgical pain after skin incision in rat assessed as withdrawal threshold at 500 umol/kg, ip. In kind it is functional.
Data set [10] is described as follows: Protein binding in rat. In kind it is ADME, organism-based. Particulars: in vivo, read-out: PB (converted).
Data set [11] has as its system Mus musculus. Briefly: Antiinflammatory activity against ip dosed BALB/c mouse assessed as inhibition of zymosan-induced peritonitis after 2 hrs pretreated 30 mins before zymosan challenge. In kind it is functional.
Data set [12] has as its target Kappa-type opioid receptor (Homo sapiens) (UniProt P41145). Briefly: Binding affinity to kappa opioid receptor.
Data set [13] can be described thus: Selectivity ratio of Ki for human histamine H4 receptor to Ki for 5HT1A receptor.
Data set [14] in a line: Selectivity ratio of Ki for human histamine H4 receptor to Ki for histamine H1 receptor.
Data set [15] has as its target T2, Histamine H4 receptor (Homo sapiens, UniProt Q9H3N8). Briefly: Displacement of [3H]histamine from human histamine H4 receptor expressed in HEK293 cells. Type of data set: cell-based. Particulars: read-out: Ki.
The target of data set [16] is T1, Histamine H4 receptor. Briefly: Antagonist activity at rat histamine H4 receptor expressed in HEK293 cells assessed as inhibition of histamine-induced intracellular calcium elevation by FLIPR assay. In kind it is functional, cell-based.
The subject of data set [17] is Rattus norvegicus. The experiment in a line: Antinociceptive efficacy against complete Freund's adjuvant-induced thermal hyperalgesia in rat assessed as withdrawal threshold at 500 umol/kg, ip after 48 hrs. Type of data set: functional.
Data set [18] has as its system Rattus norvegicus. The experiment in a line: Antinociceptive efficacy against von Frey hair mechanically stimulated post-surgical pain after skin incision in rat assessed as withdrawal threshold at 100 umol/kg, ip. In kind it is functional.
Data set [19] relates to Rattus norvegicus. The experiment in a line: Antinociceptive efficacy against complete Freund's adjuvant-induced thermal hyperalgesia in rat assessed as withdrawal threshold at 10 umol/kg, ip after 48 hrs. Type of data set: functional.
Data set [20] concerns the target Prostaglandin G/H synthase 1 (Homo sapiens) (UniProt P23219). Briefly: Binding affinity at COX1.
Data set [21] concerns Rattus norvegicus. Briefly: Antinociceptive efficacy against von Frey hair mechanically stimulated post-surgical pain after skin incision in rat assessed as withdrawal threshold at 30 umol/kg, ip. In kind it is functional.
The next data set concerns BMMC. The experiment in a line: Blockade of histamine-induced morphological changes in BALB/c mouse BMMC by flow cytometry. In kind it is functional, cell-based.
Data set [22] has as its system Rattus norvegicus. The experiment in a line: Antinociceptive efficacy against complete Freund's adjuvant-induced thermal hyperalgesia in rat assessed as withdrawal threshold at 30 umol/kg, ip after 48 hrs. In kind it is functional.
Data set [23] is described as follows: Metabolic stability in mouse liver microsomes. In kind it is ADME, Microsome.
Data set [24] deals with T2, Histamine H4 receptor. As to conditions: HEK293.
A short description of data set [25]: Ratio of drug level in brain to plasma in rat at 10 mg/kg, iv after 30 mins. In kind it is ADME, organism-based. More on the design: dose 10 mg/kg, route intravenous.
The target of data set [26] is T3, Histamine H4 receptor (Mus musculus, UniProt Q91ZY2).
T3 sequence (Q91ZY2 whole entry): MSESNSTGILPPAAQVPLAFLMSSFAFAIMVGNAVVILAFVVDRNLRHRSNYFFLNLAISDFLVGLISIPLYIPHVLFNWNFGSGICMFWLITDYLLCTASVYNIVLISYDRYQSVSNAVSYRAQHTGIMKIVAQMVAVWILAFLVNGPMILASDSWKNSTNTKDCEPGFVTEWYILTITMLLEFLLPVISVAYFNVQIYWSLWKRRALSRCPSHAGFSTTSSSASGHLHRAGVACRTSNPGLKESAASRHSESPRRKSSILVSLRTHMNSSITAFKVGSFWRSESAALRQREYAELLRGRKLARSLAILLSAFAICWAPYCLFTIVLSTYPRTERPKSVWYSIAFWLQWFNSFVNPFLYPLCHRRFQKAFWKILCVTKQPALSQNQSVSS
Briefly: Antagonist activity at mouse histamine H4 receptor expressed in HEK293 cells assessed as inhibition of histamine-induced intracellular calcium elevation by FLIPR assay. In kind it is functional, cell-based.

Data set [27] addresses Cannabinoid receptor 1 (Homo sapiens) (UniProt P21554). The experiment in a line: Binding affinity to CB1 receptor.
A short description of data set [28]: Selectivity ratio of Ki for human histamine H4 receptor to Ki for 5HT2A receptor.
For data set [29], the system named is Rattus norvegicus. The experiment in a line: Antinociceptive efficacy against complete Freund's adjuvant-induced thermal hyperalgesia in rat assessed as withdrawal threshold at 100 umol/kg, ip after 48 hrs. Type of data set: functional.
Data set [30] in a line: Selectivity ratio of Ki for human histamine H4 receptor to Ki for 5HT1D receptor.
A further data set addresses Cytochrome P450 3A4 (Homo sapiens, UniProt P08684). The experiment in a line: Inhibition of CYP3A4 upto 10 uM. In kind it is ADME.
In data set [31] the test system is Mus musculus. Briefly: Inhibition of clobenpropit-induced itching in ip dosed CD1/ICR mouse assessed as blockade of scratching in hind paw for 25 mins pretreated 30 mins before clobenpropit challenge. In kind it is functional.
Data set [32] can be described thus: Protein binding in human. Type of data set: ADME, organism-based. Particulars: in vivo, read-out: PB (converted).
A short description of data set [33]: Selectivity ratio of Ki for human histamine H4 receptor to Ki for dopamine D2 receptor.
Data set [34] concerns the target T4, Prostaglandin G/H synthase 2 (Homo sapiens) (UniProt P35354).
T4 sequence (whole entry): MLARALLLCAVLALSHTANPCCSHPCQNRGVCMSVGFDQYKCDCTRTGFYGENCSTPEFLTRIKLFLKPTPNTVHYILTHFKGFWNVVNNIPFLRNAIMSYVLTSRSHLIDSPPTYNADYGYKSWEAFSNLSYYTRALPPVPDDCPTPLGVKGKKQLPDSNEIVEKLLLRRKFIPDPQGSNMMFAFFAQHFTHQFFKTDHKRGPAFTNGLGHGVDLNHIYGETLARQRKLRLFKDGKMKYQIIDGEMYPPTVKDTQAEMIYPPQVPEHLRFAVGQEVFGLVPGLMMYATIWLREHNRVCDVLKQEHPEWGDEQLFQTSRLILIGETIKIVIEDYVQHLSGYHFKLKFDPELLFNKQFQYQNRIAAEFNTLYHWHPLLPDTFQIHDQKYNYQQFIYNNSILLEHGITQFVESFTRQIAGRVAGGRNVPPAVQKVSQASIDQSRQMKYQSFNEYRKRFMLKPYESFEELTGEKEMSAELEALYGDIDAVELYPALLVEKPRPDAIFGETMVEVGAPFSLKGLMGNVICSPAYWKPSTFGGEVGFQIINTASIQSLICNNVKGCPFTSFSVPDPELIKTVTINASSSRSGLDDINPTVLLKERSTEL
Briefly: Binding affinity at COX2.

The test system of data set [35] is Liver microsomes. Briefly: Metabolic stability in rat liver microsomes. In kind it is ADME, Microsome.
Data set [36] has as its system Rattus norvegicus. The experiment in a line: Antinociceptive efficacy against von Frey hair mechanically stimulated post-surgical pain after skin incision in rat assessed as withdrawal threshold at 10 umol/kg, ip. In kind it is functional.
For another data set, the target named is Cytochrome P450 2D6 (Homo sapiens, UniProt P10635). Briefly: Inhibition of CYP2D6 upto 10 uM. Type of data set: ADME.
A further data set concerns the target Cytochrome P450 2C9 (Homo sapiens, UniProt P11712). The experiment in a line: Inhibition of CYP2C9 upto 10 uM. Type of data set: ADME.

Activity calls are given as the source filed them. Some results are limits rather than exact numbers.

What is called Ki is a dissociation constant, usually derived from enzyme kinetics or from competition with a known ligand. By ED50 is commonly meant the dose at which the effect has come halfway, by size or by number of responders. Broadly, the EC50 is the concentration giving half of the maximal effect. What is called pKb is −log10 of the Kb, conventionally taken in molar units. The term Kp denotes the ratio of the level in a tissue or fluid to that in plasma or blood.

T1 sequence (Q91ZY1 whole entry): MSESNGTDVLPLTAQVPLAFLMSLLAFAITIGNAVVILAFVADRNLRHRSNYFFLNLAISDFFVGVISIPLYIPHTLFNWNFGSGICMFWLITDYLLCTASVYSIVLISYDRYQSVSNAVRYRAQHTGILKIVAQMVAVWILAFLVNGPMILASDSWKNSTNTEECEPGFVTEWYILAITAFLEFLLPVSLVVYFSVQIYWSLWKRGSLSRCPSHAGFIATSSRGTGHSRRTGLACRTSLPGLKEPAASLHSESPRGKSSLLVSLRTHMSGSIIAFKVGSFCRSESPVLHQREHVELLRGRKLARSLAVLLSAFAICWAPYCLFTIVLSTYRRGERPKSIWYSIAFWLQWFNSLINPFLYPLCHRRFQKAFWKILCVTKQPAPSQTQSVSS
T2 sequence (Q9H3N8 whole entry): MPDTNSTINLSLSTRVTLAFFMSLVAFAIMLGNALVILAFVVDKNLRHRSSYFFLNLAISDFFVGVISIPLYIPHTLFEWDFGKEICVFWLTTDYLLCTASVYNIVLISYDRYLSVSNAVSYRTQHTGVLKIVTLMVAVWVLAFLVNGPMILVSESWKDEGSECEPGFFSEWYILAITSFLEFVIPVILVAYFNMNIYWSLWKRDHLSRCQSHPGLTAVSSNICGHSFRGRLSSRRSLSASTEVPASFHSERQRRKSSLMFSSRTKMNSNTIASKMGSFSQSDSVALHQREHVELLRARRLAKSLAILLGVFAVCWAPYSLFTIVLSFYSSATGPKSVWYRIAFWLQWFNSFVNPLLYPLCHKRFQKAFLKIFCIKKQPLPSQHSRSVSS
Kappa-type opioid receptor (Homo sapiens), sequence (P41145 whole entry): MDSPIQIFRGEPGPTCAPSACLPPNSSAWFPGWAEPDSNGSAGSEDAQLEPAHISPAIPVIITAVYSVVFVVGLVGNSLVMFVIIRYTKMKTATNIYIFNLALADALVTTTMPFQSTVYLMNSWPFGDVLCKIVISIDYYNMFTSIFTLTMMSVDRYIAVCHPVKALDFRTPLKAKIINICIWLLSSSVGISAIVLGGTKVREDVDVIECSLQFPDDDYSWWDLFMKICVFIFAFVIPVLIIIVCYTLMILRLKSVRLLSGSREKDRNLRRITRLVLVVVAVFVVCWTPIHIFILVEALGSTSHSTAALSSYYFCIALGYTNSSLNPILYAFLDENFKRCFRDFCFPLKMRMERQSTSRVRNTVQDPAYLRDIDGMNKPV
Cytochrome P450 3A4, sequence (P08684 whole entry): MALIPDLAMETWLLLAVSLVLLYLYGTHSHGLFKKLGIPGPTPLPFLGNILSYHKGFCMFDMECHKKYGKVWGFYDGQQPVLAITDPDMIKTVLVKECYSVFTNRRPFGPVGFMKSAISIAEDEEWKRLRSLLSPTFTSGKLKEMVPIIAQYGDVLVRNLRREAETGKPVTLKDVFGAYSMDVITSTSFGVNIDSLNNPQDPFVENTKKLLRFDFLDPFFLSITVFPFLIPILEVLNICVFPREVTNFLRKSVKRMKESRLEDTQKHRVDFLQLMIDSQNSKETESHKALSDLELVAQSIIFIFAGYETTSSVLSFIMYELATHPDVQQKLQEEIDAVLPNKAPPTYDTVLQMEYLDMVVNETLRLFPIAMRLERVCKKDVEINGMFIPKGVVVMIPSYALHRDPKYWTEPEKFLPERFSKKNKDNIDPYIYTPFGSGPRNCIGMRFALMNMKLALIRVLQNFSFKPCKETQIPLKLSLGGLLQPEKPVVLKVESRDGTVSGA
Mu-type opioid receptor (Homo sapiens), sequence (P35372 whole entry): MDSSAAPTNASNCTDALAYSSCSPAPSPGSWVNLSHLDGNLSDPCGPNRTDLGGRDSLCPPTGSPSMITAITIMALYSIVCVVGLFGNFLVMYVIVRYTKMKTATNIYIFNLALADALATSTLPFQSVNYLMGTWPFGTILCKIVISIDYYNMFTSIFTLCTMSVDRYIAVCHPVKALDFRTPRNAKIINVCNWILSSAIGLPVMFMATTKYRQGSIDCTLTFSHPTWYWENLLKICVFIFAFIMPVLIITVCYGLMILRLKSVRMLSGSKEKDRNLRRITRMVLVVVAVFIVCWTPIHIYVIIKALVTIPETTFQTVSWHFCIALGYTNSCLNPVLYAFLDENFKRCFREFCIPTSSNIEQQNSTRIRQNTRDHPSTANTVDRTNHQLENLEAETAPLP
Prostaglandin G/H synthase 1 (Homo sapiens), sequence (P23219 whole entry): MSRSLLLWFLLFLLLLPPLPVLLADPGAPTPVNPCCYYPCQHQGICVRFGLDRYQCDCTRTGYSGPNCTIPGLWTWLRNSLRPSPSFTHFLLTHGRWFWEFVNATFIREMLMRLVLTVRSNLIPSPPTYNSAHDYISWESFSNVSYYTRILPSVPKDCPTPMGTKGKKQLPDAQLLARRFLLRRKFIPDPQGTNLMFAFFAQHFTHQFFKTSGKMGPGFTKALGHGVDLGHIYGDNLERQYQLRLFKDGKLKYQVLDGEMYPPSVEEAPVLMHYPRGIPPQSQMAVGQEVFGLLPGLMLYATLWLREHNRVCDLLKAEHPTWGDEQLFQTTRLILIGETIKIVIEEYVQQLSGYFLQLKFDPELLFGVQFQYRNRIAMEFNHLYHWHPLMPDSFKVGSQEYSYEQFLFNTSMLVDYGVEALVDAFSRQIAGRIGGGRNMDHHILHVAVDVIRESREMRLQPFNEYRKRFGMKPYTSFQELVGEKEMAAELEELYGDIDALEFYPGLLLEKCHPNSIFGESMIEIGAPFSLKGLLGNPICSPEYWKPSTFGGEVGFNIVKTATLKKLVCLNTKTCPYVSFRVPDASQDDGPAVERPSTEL
Delta-type opioid receptor (Homo sapiens), sequence (P41143 whole entry): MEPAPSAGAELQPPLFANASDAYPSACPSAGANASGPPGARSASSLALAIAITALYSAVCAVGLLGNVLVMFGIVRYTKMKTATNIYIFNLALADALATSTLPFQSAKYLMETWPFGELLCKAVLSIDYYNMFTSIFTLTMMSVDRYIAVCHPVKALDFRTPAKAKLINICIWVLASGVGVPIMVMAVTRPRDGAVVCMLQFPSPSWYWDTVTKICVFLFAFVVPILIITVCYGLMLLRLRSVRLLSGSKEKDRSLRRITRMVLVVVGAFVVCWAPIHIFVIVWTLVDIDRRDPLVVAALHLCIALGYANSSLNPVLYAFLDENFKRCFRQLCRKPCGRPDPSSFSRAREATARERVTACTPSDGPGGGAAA
Cytochrome P450 2C9, sequence (P11712 whole entry): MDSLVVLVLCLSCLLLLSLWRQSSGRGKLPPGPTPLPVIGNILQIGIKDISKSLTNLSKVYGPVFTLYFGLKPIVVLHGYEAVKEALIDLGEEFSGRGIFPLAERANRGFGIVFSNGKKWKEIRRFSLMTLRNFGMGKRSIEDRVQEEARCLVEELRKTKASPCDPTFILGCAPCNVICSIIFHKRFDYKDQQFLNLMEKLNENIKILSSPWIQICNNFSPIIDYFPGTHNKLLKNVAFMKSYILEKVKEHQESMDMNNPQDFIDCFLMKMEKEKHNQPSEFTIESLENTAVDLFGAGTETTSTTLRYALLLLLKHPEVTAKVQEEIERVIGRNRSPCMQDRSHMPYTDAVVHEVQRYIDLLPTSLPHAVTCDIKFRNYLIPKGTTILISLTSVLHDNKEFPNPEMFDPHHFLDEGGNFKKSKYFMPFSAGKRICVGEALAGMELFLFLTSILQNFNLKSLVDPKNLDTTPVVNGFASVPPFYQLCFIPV
Cytochrome P450 2D6, sequence (P10635 whole entry): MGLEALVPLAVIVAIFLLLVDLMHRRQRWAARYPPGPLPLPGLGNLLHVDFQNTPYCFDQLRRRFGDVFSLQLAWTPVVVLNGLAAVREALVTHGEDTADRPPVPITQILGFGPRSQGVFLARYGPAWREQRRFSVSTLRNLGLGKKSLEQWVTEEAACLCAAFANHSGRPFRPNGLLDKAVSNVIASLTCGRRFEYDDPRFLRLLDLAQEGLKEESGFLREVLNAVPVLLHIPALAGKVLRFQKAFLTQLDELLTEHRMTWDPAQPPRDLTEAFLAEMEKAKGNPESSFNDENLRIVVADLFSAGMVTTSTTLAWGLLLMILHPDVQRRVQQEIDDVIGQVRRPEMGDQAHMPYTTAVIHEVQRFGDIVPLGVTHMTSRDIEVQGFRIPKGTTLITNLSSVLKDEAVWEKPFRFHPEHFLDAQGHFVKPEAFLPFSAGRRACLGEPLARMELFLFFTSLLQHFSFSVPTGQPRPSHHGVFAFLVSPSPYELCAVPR
Cannabinoid receptor 2 (Homo sapiens), sequence (P34972 whole entry): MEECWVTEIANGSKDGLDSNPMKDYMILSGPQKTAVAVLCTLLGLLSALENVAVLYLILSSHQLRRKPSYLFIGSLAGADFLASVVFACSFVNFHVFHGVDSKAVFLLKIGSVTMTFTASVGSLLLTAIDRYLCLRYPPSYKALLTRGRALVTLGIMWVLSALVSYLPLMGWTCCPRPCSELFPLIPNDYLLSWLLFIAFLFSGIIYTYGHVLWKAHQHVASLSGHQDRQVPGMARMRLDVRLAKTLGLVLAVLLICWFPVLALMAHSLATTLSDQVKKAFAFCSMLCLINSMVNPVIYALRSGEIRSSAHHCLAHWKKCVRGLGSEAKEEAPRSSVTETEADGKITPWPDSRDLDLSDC
Cannabinoid receptor 1 (Homo sapiens), sequence (P21554 whole entry): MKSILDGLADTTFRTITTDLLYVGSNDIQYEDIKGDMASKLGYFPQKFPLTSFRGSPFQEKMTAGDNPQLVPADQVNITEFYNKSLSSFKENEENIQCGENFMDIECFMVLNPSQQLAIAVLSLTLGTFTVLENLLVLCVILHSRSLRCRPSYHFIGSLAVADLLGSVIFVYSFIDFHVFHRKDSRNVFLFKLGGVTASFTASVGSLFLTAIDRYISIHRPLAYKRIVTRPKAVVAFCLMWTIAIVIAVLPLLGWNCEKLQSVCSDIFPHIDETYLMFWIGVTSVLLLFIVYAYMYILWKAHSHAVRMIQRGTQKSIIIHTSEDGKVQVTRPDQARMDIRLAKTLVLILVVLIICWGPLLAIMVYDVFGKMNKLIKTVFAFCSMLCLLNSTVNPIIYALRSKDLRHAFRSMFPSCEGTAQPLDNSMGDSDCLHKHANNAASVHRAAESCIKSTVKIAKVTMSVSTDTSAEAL

Regarding `O=C(O)Cc1ccccc1Nc1c(Cl)cccc1Cl` [DICLOFENAC], the Efficacy with Rattus norvegicus [1] was determined as 91%.

Consider `CN[C@@H]1CCN(c2nc(N)nc3c2CCCc2ccccc2-3)C1`, for which the Stability is reported as 20.7 pmol/min/mg with Liver microsomes [2], 29.7 pmol/min/mg in [23] and 173 pmol/min/mg with Liver microsomes [35]. The Ratio Ki in [3] is more than 1300; in the data set listed under Homo sapiens it was 570; in data set [8], 150; in data set [13], 460; in data set [14] it was more than 1890; in [28], 2030. For the same molecule, the Ratio Ki is 235 in [30] and 1820 in [33]. For the same molecule, the outcome in [4], in data set [5], in [6], in data set [12], in data set [20] and in data set [27] was inactive. Moreover, the outcome in [34] was inactive. In addition, the results for the Ki on Histamine H4 receptor [7] and at Histamine H4 receptor [15] were 5.13 nM and 3.5 nM, respectively. Moreover, the Efficacy is recorded as 55% with Rattus norvegicus [9]; 79% with Rattus norvegicus [17]; 69% with Rattus norvegicus [18]; 34% in the data set on Rattus norvegicus [19]; 21% in the data set with Rattus norvegicus [21]; 35% in the data set on Rattus norvegicus [22]. Further, the Efficacy with Rattus norvegicus [29] was determined as 49%; in the data set with Rattus norvegicus [36] it was 9%. Moreover, the figures for the fraction unbound in data set [10] and in data set [32] were 0.43 and 0.51, respectively. Further, the values for the ED50 in the data set on Mus musculus [11] and with Mus musculus [31] were 100 µmol/kg and 235 µmol/kg, respectively. For the same molecule, the values for the concentration giving a half-maximal response (EC50) on Histamine H4 receptor [16] and at Histamine H4 receptor [26] were 6.61 nM and 4.37 nM, respectively. The result with BMMC was Active. At Histamine H4 receptor [24], the pKb came out at 8.21. In addition, in data set [25], the Kp at 0.5 h was 3. Besides, the Activity entry on Cytochrome P450 3A4, at Cytochrome P450 2D6 and on Cytochrome P450 2C9 was “Not Active” each time.
